Results from patent publication US7329518B2, “Enzyme for producing optically active pyridineethanol derivatives” (Kaneka Corporation, priority 1999, dated 2008).

What follows are compounds tested on FPDH (assay: Behaviors of FPDH against inhibitors (reducing activity measurement with added compounds and metal salts)). Conditions: inhibitor 0.01 mM; activity without inhibitor = 100%; 1 mM 5-acetylfuro[2,3-c]pyridine, 0.25 mM NADH, pH 6.5, 30° C.
Type: biochemical, Candida maris IFO 10003

Compound | Relative activity
O=c1c(O)c(-c2ccc(O)c(O)c2)oc2cc(O)cc(O)c12 [Quercetin] | 78%
O=C(O)c1cc(SSc2ccc([N+](=O)[O-])c(C(=O)O)c2)ccc1[N+](=O)[O-] [DTNB] | 98%

Same assay, conditions: inhibitor 0.1 mM; activity without inhibitor = 100%; 1 mM 5-acetylfuro[2,3-c]pyridine, 0.25 mM NADH, pH 6.5, 30° C.

Compound | Relative activity
O=C(O)c1cc[c]([Hg][Cl])cc1 [p-Chloromercuribenzoic acid] | 100%

Same assay, conditions: inhibitor 1.0 mM; activity without inhibitor = 100%; 1 mM 5-acetylfuro[2,3-c]pyridine, 0.25 mM NADH, pH 6.5, 30° C.

Compound | Relative activity
O[C@H](CS)[C@H](O)CS (racemic) [Dithiothreitol] | 93%
O=S(=O)([O-])[O-].[Mg+2] [MgSO4] | 81%
O=S(=O)([O-])[O-].[Cu+2] [CuSO4] | 103%
OCCS [2-Mercaptoethanol] | 94%
c1cnc2c(c1)ccc1cccnc12 [1,10-Phenanthroline] | 98%
[Cl][Mn][Cl] [MnCl2] | 76%
CCN1C(=O)C=CC1=O [N-ethylmaleimide] | 84%
O=C(O)CN(CCN(CC(=O)O)CC(=O)O)CC(=O)O [EDTA] | 98%
[Cl][Hg][Cl] [HgCl2] | 0%
O=S(=O)([O-])[O-].[Zn+2] [ZnSO4] | 74%

Same assay, conditions: pH 6.5

Compound | Relative activity
O=C(O)CI [Iodoacetic acid] | 80%
[Cl-].[Cl-].[Co+2] [CoCl2] | 85%

Same assay, conditions: standard reaction conditions for reducing activity measurement

Compound | Inhibition of the enzyme activity (in words)
[Hg+2] [mercury ion] | inhibited

These compounds were tested on FPDH (assay: Specificity of FPDH: reducing activity against various carbonyl compounds as substrates). Conditions: substrate 1 mM; 5-acetylfuro[2,3-c]pyridine = 100%; 0.25 mM NADH, pH 6.5, 30° C.
Type: biochemical, Candida maris IFO 10003
Description: In the practice of the invention, the reducing activity of the enzyme is determined by carrying out the reaction in 3.0 ml of a reactant mixture containing 1 mM substrate, 0.25 mM coenzyme NADH, 0.3% (vol/vol) dimethyl sulfoxide and an enzyme solution in 100 mM phosphate buffer (pH 6.5) at 30° C. for 3 minutes and then measuring the reduction in absorbance at 340 nm.
The term “very low in reducing activity” referring to the specificity means that when the reducing activity against 5-acetylfuro[2,3-c]pyridine is taken as 100%, the reducing activity against the substrate in question is not more than 10%. The term “carbocyclic ketones” means ketones, such as cyclohexanone and cyclopentanone, derived from alicyclic compounds by substituting —C(═O)— for a ring constituent —CH2— thereof.
Hereafter, the reducing activity was measured by allowing the reaction to proceed at 30° C. for 3 minutes in 3.0 ml of a reaction mixture containing 1 mM 5-acetylfuro[2,3-c]pyridine (substrate), 0.25 mM NADH, 0.3% (vol/vol) dimethyl sulfoxide and 0.05 ml of the enzyme solution in 100 mM phosphate buffer (pH 6.5) and measuring the decrease in absorbance at the wavelength 340 nm. These conditions were employed as standard reaction conditions for reducing activity measurement. The enzyme activity oxidizing 1 μmole of NADH to NAD^+ in one minute under these reaction conditions was defined as 1 unit.
The reducing activity of FPDH was examined against various compounds. Activity measurements were conducted under the standard reaction conditions for reducing activity measurement using various carbonyl compounds shown in Table 8 and Table 9 as substrates in lieu of 5-acetylfuro[2,3-c]pyridine. In Table 8 and Table 9, the results are shown in terms of relative activity with the reducing activity when 5-acetylfuro[2,3-c]pyridine was used as the substrate being taken as 100%. As a result, FPDH had reducing activity against ketones and aldehydes but the reducing activity thereof was very low against carbocyclic ketones and the ketone in position α to a carboxyl group.

Compound | Relative activity (reducing activity, Table 8) | Relative activity (reducing activity, Table 9)
CC(=O)c1ccc(F)cc1 [p-Fluoroacetophenone] | 88% | –
CCCC(=O)C(=O)O [2-Keto-n-valeric acid] | – | 7%
CCOC(=O)C(Cl)C(C)=O (stereo not shown) [Ethyl 2-chloroacetoacetate] | – | 88%
CC(=O)c1cccs1 [2-Acetylthiophene] | 77% | –
CCC=O [Propionaldehyde] | – | 70%
CC12CCC(C(=O)C1=O)C2(C)C (stereo not shown) [Camphorquinone] | – | 3%
CC(=O)c1ccccc1Cl [o-Chloroacetophenone] | 9% | –
CCCCC(C)=O [2-Hexanone] | 38% | –
O=C1CCCC1 [Cyclopentanone] | – | 3%
CC(C)=O [Acetone] | 40% | –
CC(=O)c1ccccn1 [2-Acetylpyridine] | 111% | –
CC(=O)c1cccnc1 [3-Acetylpyridine] | 107% | –
O=C(O)CC(=O)C(=O)O [Oxalacetic acid] | – | 4%
CC(=O)c1ccncc1 [4-Acetylpyridine] | 130% | –
CC(=O)c1nccs1 [2-Acetylthiazole] | 86% | –
O=C(CCl)c1cccc(Cl)c1 [2,3′-Dichloroacetophenone] | 19% | –
CC(=O)c1cccc([N+](=O)[O-])c1 [m-Nitroacetophenone] | 136% | –
CCCCCC=O [n-Hexyl aldehyde] | – | 71%
CC(=O)C(=O)O [Pyruvic acid] | – | 3%
O=Cc1cccc(Cl)c1 [m-Chlorobenzaldehyde] | – | 111%
O=Cc1ccccc1 [Benzaldehyde] | – | 94%

Compound | Relative activity (reducing activity, Table 8) | Relative activity (reducing activity, Table 9)
O=Cc1ccccc1[N+](=O)[O-] [o-Nitrobenzaldehyde] | – | 9%
CC(=O)c1cccc(Cl)c1 [m-Chloroacetophenone] | 120% | –
CCC(C)=O [2-Butanone] | 94% | –
CC(=O)c1ccc([N+](=O)[O-])cc1 [p-Nitroacetophenone] | 116% | –
O=C1CCCCCC1 [Cycloheptanone] | – | 4%
O=Cc1ccncc1 [Pyridine-4-aldehyde] | – | 64%
O=Cc1cccc([N+](=O)[O-])c1 [m-Nitrobenzaldehyde] | – | 103%
O=Cc1ccc(Cl)cc1 [p-Chlorobenzaldehyde] | – | 104%
CC(=O)C(C)O (stereo not shown) [Acetoin] | 43% | –
CC(=O)CC(C)=O [Acetylacetone] | 123% | –
CC(=O)c1ccccc1 [Acetophenone] | 88% | –
O=C1CCCCC1 [Cyclohexanone] | – | 4%
CCOC(=O)C(C)=O [Ethyl pyruvate] | 133% | –
O=C1CCc2ccccc2C1 [2-Tetralone] | – | 0%
CC(=O)C1CCCCC1=O (stereo not shown) [1-Acetylcyclohexanone] | 68% | –
COC(=O)CC(C)=O [Methyl acetoacetate] | – | 128%
CC(=O)C(C)=O [Diacetyl] | 107% | –
CCCC(C)=O [2-Pentanone] | 67% | –
CC(=O)c1ccc(Cl)cc1 [p-Chloroacetophenone] | 88% | –
CC=O [Acetaldehyde] | – | 36%
CCC(=O)C(=O)O [2-Ketobutyric acid] | – | 5%

Compound | Relative activity (reducing activity, Table 8) | Relative activity (reducing activity, Table 9)
CCCC=O [n-Butyr aldehyde] | – | 123%
CC(=O)c1cc2ccoc2c(Cl)n1 [1-Chloro-5-acetylfuro[2,3-c]pyridine] | 66% | –
CC(=O)c1ccco1 [2-Acetylfuran] | 43% | –
CC(=O)c1cc2ccoc2cn1 [5-Acetylfuro[2,3-c]pyridine] | 100% | –
O=C(CO)c1ccccc1 [2-Hydroxyacetophenone] | 54% | –
CC(=O)c1ccc[nH]1 [2-Acetylpyrrole] | 100% | –
CC(=O)c1cnccn1 [Acetylpyrazine] | 133% | –
COC(=O)C(C)=O [Methyl pyruvate] | 132% | –
CC(=O)C1CCCC1=O (stereo not shown) [1-Acetylcyclopentanone] | 86% | –
O=Cc1ccc([N+](=O)[O-])cc1 [p-Nitrobenzaldehyde] | – | 162%
O=C1CCCc2ccccc21 [1-Tetralone] | – | 2%
O=Cc1ccccn1 [Pyridine-2-aldehyde] | – | 54%
CCC(=O)CC [Diethyl ketone] | 22% | –
CC(=O)C(C)C [Methyl isopropyl ketone] | 43% | –
CCCCCCC(C)=O [2-Octanone] | 38% | –
CC(=O)CC(C)C [Methyl isobutyl ketone] | 14% | –
O=Cc1ccccc1Cl [o-Chlorobenzaldehyde] | – | 0%
CC(=O)CCc1ccccc1 [Benzylacetone] | 96% | –
CCOC(=O)CC(C)=O [Ethyl acetoacetate] | – | 141%
O=Cc1cccnc1 [Pyridine-3-aldehyde] | – | 47%

What follows are compounds tested on FPDH (assay: Oxidation activity of FPDH against various compounds as substrates). Conditions: substrate 1 mM; 5-(1-(R)-hydroxyethyl)furo[2,3-c]pyridine = 100%; 0.25 mM NAD+, pH 8.0, 30° C.
Type: biochemical, Candida maris IFO 10003
Description: Further, FPDH was examined for oxidation activity against various compounds. The oxidation activity was measured by allowing the reaction to proceed at 30° C. for 3 minutes in 3.0 ml of a reaction mixture containing 1 mM substrate, 0.25 mM NAD^+, 0.3% (vol/vol) dimethyl sulfoxide and 0.05 ml of the enzyme solution in 100 mM phosphate buffer (pH 8.0) and measuring the increase in absorbance at the wavelength 340 nm. These conditions were employed as standard reaction conditions for oxidizing activity substrate measurement. The enzyme activity reducing 1 μmole of NAD^+ to NADH in one minute under these reaction conditions was defined as 1 unit. The data shown in Table 10 are relative activities with the oxidation activity against the substrate 5-(1-(R)-hydroxyethyl)furo[2,3-c]pyridine being taken as 100%.

Compound | Relative activity (oxidation activity)
CC(O)c1ccncc1 (stereo not shown) [1-(4-Pyridyl)ethanol] | 24%
CC(O)c1ccccn1 (stereo not shown) [1-(2-Pyridyl)ethanol] | 23%
C=CC(C)O (stereo not shown) [1-Buten-3-ol] | 261%
C[C@@H](O)c1cc2ccoc2cn1 [(R)-5-(1-Hydroxyethyl)furo[2,3-c]pyridine] | 100%
